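How tested: cells in 96-well plates exposed to compound for 48 hours at five concentrations. TGI is the concentration that stops growth completely.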
How the values were obtained:
Experiment in all cases: growth of human tumour cells (NCI), 48 h
[1] = tested on: BT-549 breast
[2] = tested on: MALME-3M melanoma
[3] = tested on: IGROV1 ovarian
[4] = tested on: SF-268 CNS
[5] = tested on: SK-MEL-28 melanoma
[6] = tested on: SK-MEL-2 melanoma
[7] = tested on: SK-MEL-5 melanoma
[8] = tested on: HT29 colon
[9] = tested on: SF-539 CNS
[10] = tested on: NCI/ADR-RES ovarian
[11] = tested on: HOP-62 NSCLC
[12] = tested on: 786-0 renal
[13] = tested on: U251 CNS
[14] = tested on: KM12 colon
[15] = tested on: MOLT-4 leukemia
[16] = tested on: ACHN renal
[17] = tested on: SNB-75 CNS
[18] = tested on: COLO 205 colon
[19] = tested on: K-562 leukemia
[20] = tested on: T-47D breast
[21] = tested on: NCI-H522 lung
[22] = tested on: OVCAR-4 ovarian
[23] = tested on: SNB-19 CNS
[24] = tested on: MDA-N
[25] = tested on: SF-295 CNS
[26] = tested on: RXF 393 renal
[27] = tested on: MDA-MB-231 breast
[28] = tested on: OVCAR-5 ovarian
[29] = tested on: PC-3 prostate
[30] = tested on: NCI-H23 lung
[31] = tested on: MCF7 breast
[32] = tested on: M14 melanoma
[33] = tested on: OVCAR-3 ovarian
[34] = tested on: HCC-2998 colon
[35] = tested on: SK-OV-3 ovarian
[36] = tested on: CAKI-1 renal
[37] = tested on: TK-10 renal
[38] = tested on: NCI-H226 lung
[39] = tested on: UACC-257 melanoma
[40] = tested on: UO-31 renal
[41] = tested on: OVCAR-8 ovarian
[42] = tested on: CCRF-CEM leukemia
[43] = tested on: A549 NSCLC
[44] = tested on: EKVX NSCLC
[45] = tested on: SN12C renal
[46] = tested on: HCT-116 colon
[47] = tested on: HOP-92 NSCLC
[48] = tested on: HS 578T breast
[49] = tested on: A498 renal
[50] = tested on: HCT-15 colon
[51] = tested on: NCI-H460 lung
[52] = tested on: SW-620 colon
[53] = tested on: RPMI-8226 leukemia
[54] = tested on: DU-145 prostate
[55] = tested on: MDA-MB-435
[56] = tested on: HL-60(TB) leukemia
[57] = tested on: LOX IMVI melanoma
[58] = tested on: UACC-62 melanoma

Measured: TGI

CC=C(CBr)CCC(Br)C(C)(C)Cl (mixture of isomers)
not listed: [56] | [57] | [58]
> 10 µM: all other assays above

CCCCCCSC[C@H](OC(C)=O)[C@@H](OC(C)=O)[C@@H](OC(C)=O)[C@@H](COC(C)=O)OC(C)=O
62.1 µM: [7]
90.5 µM: [15]
99.6 µM: [29]
50.1 µM: [53]
not listed: [21]
> 100 µM: all other assays above

Reference: PubChem BioAssay (NCI)
